{"source": "patent US10537523B2", "about": "“Oral suspension comprising telmisartan” (Boehringer Ingelheim Vetmedica GmbH, priority 2009, dated 2020)", "experiment": "pH-dependent solubility of telmisartan in aqueous formulation", "assay_type": "physicochemical", "settings": "concentrations of active substance greater than 1 mg/ml", "description": "The aim of the present invention is to provide a pharmaceutical solution, preferably a drinkable pharmaceutical solution containing an angiotensin-II-receptor antagonist. Preferred angiotensin II receptor antagonists are the substances known by the following INN names: candesartan, eprosartan, irbesartan, losartan, olmesartan, tasosartan, telmisartan and valsartan, and the pharmaceutically acceptable salts, hydrates or polymorphs thereof. The concentration of the angiotensin-II-receptor antagonist, preferably telmisartan, needed in the solution in order to achieve therapeutic doses should be between 1 mg/ml and 10 mg/ml. Moreover, because of the strongly pH-dependent solubility profile of telmisartan an aqueous formulation should have a pH that is either less than 2 or more than 10, in order to ensure a physically stable solution.\nThe very powerfully astringent effect of such acidic solutions makes acidic formulations of this kind totally unsuitable for long-term use particularly in children but also in domestic pets such as dogs and cats.\nIt has thus been shown that the stability of a drinkable telmisartan solution is dependent on the amount of reducing sugar contained in the sugar alcohol. The stability of a drinkable telmisartan solution deteriorates as the content of reducing sugars increases. […]"}
{"smiles": "CCCc1nc2c(C)cc(-c3nc4ccccc4n3C)cc2n1Cc1ccc(-c2ccccc2C(=O)O)cc1", "note": "[telmisartan, 4′-((2-n-propyl-4-methyl-6-(1-methylbenz-imidazol-2-yl)-benzimidazol-1-yl)methyl)biphenyl-2-carboxylic acid]", "values": [{"measurement": "pH needed for dissolved active substance in acid range", "result": "less than 1.5"}]}
